Test results from BindingDB's records for doi:10.1021/jm00397a017 (Beijing Medical University, 1988).

target: T1, Dihydrofolate reductase (Escherichia coli (strain K12), UniProt P0ABQ4); test: ChEBML_54731
T1 sequence (P0ABQ4 whole entry): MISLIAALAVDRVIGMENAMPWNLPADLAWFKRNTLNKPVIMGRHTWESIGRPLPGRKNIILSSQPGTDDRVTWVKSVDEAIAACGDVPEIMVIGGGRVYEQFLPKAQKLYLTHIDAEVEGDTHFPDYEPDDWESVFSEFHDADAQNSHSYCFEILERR
From the text: Apparent inhibitory (log 1/Ki) activity against Escherichia coli dihydrofolate reductase

For Nc1ncc(Cc2cc(OCc3ccccc3)cc(OCc3ccccc3)c2)c(N)n1, which Ki is on record?
The Ki was 1.7 nM.

With COCCOc1cc(Cc2cnc(N)nc2N)ccc1OC as the compound, how does the Ki read?
Its Ki is 1.8 nM.

For CCCCOc1ccc(Cc2cnc(N)nc2N)cc1OC, which Ki is on record?
The Ki was 0.977 nM.

For CCCOc1cc(Cc2cnc(N)nc2N)cc(Br)c1OC, which Ki is on record?
Its Ki is 1.1 nM.

For CCCCOc1cc(Cc2cnc(N)nc2N)cc(Br)c1OC, which Ki is on record?
Its Ki is 1.1 nM.

Which Ki does the source give for CS(=O)(=O)Oc1ccc(Cc2cnc(N)nc2N)cc1 here?
The Ki was 7.1 nM.

For COCCOc1ccc(Cc2cnc(N)nc2N)cc1OC, which Ki is on record?
The Ki was 0.562 nM.

For COc1cc(Cc2cnc(N)nc2N)ccc1O, which Ki is on record?
The Ki was 0.891 nM.

Which Ki does the source give for CCCOc1cc(Cc2cnc(N)nc2N)cc(OCCC)c1 here?
The Ki was 1.6 nM.

How did the Ki turn out when Cc1cc(C)cc(Cc2cnc(N)nc2N)c1 was run?
Its Ki is 8.9 nM.

CCOc1cc(Cc2cnc(N)nc2N)cc(OCC)c1 was tested. Which Ki did it give?
Its Ki is 0.776 nM.

For COc1ccc(Cc2cnc(N)nc2N)cc1OS(C)(=O)=O, which Ki is on record?
Its Ki is 1.1 nM.

How did the Ki turn out when CCCOc1cc(Cc2cnc(N)nc2N)cc(OCC)c1 was run?
Its Ki is 3.2 nM.

How did the Ki turn out when COc1ccc(Cc2cnc(N)nc2N)cc1OCc1ccccc1 [5-(3-Benzyloxy-4-methoxy-benzyl)-pyrimidine-2,4-diamine] was run?
Its Ki is 0.0977 nM.

For COc1cc(Cc2cnc(N)nc2N)ccc1OCc1ccccc1 [5-(4-(benzyloxy)-3-methoxybenzyl)pyrimidine-2,4-diamine], which Ki is on record?
The Ki was 0.372 nM.

With Nc1ncc(Cc2ccc(OCc3ccccc3)cc2)c(N)n1 [5-(4-(benzyloxy)benzyl)pyrimidine-2,4-diamine] as the compound, how does the Ki read?
The Ki was 2 nM.
